Experimental data as given in patent publication US20080249077A1, “17.Beta.-Fluoromethoxycarbonyl-Androst-4-En-3-One Compounds With a 17.Alpha.-Carbonate Sustituent” (priority 2005, published 2008).

Columns and labels:
Assay type in all cases: cell-based
[1] = target: T1, glucocorticoid receptor (Homo sapiens, UniProt P04150); experiment: Assay for transrepression activity of the glucocorticoid agonists (NF-κB responsive ELAM promoter-sPAP reporter, TNF-stimulated A549 cells); details: compound 1 hour at 37° C., then TNF 10 ng/ml for 16 hours, read-out: pIC50 (transrepression) (converted)
T1 construct: A549 cells stably transfected with a reporter gene; endogenous in cells; host or cells: A549 cells
T1 sequence (P04150 1-777): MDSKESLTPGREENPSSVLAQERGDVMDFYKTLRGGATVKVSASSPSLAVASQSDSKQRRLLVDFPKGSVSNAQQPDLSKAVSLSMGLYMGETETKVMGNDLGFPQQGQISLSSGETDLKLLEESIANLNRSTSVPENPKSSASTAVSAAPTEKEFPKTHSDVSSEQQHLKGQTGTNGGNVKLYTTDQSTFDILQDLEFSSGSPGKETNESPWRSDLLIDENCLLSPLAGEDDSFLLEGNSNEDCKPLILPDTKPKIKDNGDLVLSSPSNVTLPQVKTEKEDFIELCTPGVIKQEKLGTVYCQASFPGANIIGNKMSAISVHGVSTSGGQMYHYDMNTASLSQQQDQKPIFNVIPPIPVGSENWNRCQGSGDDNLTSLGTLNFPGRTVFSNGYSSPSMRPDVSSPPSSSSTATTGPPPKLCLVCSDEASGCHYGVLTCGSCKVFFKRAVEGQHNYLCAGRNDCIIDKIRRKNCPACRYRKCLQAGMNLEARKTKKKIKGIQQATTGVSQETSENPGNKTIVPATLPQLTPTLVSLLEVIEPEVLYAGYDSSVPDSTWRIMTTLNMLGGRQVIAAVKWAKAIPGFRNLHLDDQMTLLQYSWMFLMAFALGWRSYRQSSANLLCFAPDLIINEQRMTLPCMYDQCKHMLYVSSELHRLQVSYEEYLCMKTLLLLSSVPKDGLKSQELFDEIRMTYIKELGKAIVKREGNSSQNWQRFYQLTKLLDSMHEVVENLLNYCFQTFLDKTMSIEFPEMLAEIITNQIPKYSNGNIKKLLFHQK
Protocol: Assay for Transrepression Activity of the Glucocorticoid Agonists
A549 cells stably transfected with a reporter gene containing the NF-κB responsive elements from the ELAM gene promoter coupled to sPAP (secreted alkaline phosphatase) are treated with test compounds at appropriate doses for 1 hour at 37° C. The cells are then stimulated with tumour necrosis factor (TNF, 10 ng/ml) for 16 hours, at which time the amount of alkaline phosphatase produced is measured by a standard colourimetric assay. Dose response curves were constructed from which EC50 values were estimated.

[2] = target: T1, glucocorticoid receptor; experiment: Assay for transactivation activity of the glucocorticoid agonists (MMTV-LTR renilla luciferase reporter in A549 cells); details: compound 6 hour at 37° C., read-out: maximal response relative to Dexamethasone (100%) (transactivation)
Protocol: Assay for Transactivation Activity of the Glucocorticoid Agonists
The functional assay based on that described by R. J. H. Austin et al., Eur Resp J. (2002), 20, 1386-1392 measures the ability of compounds to directly transactivate gene expression. A549 cells stably transfected with a reporter gene containing the glucocorticoid responsive region of the mouse mammary tumour virus long terminal repeat (MMTV-LTR) coupled to renilla luciferase were treated with test compounds at appropriate doses for 6 hour at 37° C. The amount of luciferase activity present within the cells is then determined by measuring the light emitted following incubation with a suitable substrate. Dose response curves were constructed from which EC50 values were estimated and from which maximal responses are calculated relative to Dexamethasone (100%).

[3] = target: T2, Progesterone Receptor (Homo sapiens, UniProt P06401); experiment: Assay for progesterone receptor activity (CV-1 cells transduced with PRb-BacMam and MMTV-BacMam, Steady Glo); details: 24 h, read-out: pEC50 (progesterone receptor) (converted)
T2 construct: expressed in transfected cells; host or cells: CV-1 cells transduced with PRb-BacMam
T2 sequence (P06401 1-933): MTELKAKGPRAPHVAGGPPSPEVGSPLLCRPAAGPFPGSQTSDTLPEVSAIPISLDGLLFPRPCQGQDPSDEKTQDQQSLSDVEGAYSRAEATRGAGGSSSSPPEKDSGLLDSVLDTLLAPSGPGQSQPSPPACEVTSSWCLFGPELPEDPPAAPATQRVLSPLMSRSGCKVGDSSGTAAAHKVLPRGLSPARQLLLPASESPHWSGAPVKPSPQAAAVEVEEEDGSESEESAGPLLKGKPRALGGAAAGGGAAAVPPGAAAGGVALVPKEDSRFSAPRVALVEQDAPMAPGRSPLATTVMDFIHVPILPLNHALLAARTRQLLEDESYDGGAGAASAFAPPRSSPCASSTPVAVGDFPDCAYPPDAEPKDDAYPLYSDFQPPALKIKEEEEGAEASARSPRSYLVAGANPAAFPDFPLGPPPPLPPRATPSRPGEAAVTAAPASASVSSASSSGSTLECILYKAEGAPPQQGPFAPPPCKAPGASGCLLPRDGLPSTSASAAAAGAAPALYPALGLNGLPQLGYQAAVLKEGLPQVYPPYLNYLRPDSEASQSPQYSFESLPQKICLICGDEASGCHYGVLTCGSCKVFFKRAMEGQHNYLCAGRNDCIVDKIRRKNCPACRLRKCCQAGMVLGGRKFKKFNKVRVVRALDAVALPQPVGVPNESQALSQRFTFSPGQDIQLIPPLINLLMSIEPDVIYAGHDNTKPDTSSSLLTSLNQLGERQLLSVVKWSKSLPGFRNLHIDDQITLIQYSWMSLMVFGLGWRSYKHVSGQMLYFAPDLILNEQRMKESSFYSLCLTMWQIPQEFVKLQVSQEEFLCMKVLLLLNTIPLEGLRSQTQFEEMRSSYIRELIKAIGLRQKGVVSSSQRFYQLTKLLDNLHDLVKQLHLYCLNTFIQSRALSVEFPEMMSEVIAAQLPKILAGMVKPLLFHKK
Protocol: Assay for Progesterone Receptor Activity
Cells were diluted in DMEM containing 10% Hyclone, 2 mM […] and 1% Pen/Strep at 140 cells/μl and transduced with 10% PRb-BacMam and 10% MMTV-BacMam. […] of suspension cells were dispensed to each well of white Nunc 384-well plates, containing compounds at the required concentration. After 24 h 10 μl of Steady Glo were added to each well of the plates. Plates were incubated in the dark for 10 min before reading them on a Viewlux reader. Dose response curves were constructed from which pEC50 values were estimated.

Compound: C[C@@H]1C[C@H]2[C@@H]3C[C@H](F)C4=CC(=O)C=C[C@]4(C)[C@@]3(F)[C@@H](O)C[C@]2(C)[C@@]1(OC(=O)OC(C)(C)C)C(=O)OCF [Example 1, Fluoromethyl(6α,11β,16α,17α)-17-({[(1,1-dimethylethyl)oxy]carbony}oxy)-6,9-difluoro-11-hydroxy-16-methyl-3-oxoandrosta-1,4-diene-17-carboxylate]
- IC50 [1]: < 0.1 nM
- Emax [2]: < 25%

Compound: CCC(C)(C)OC(=O)O[C@]1(C(=O)OCF)[C@H](C)C[C@H]2[C@@H]3C[C@H](F)C4=CC(=O)C=C[C@]4(C)[C@@]3(F)[C@@H](O)C[C@@]21C [Example 2, Fluoromethyl(6α,11β,16α,17α)-17-({[(1,1-dimethylpropyl)oxy]carbonyl}oxy)-6,9-difluoro-11-hydroxy-16-methyl-3-oxoandrosta-1,4-diene-17-carboxylate]
- EC50 [3]: > 10 nM
- IC50 [1]: < 0.1 nM

Compound: CCC(CC)COC(=O)O[C@]1(C(=O)OCF)[C@H](C)C[C@H]2[C@@H]3C[C@H](F)C4=CC(=O)C=C[C@]4(C)[C@@]3(F)[C@@H](O)C[C@@]21C [Example 6, Fluoromethyl(6α,11β,16α,17α)-17-({[(2-ethylbutyl)oxy]carbonyl}oxy)-6,9-difluoro-11-hydroxy-16-methyl-3-oxoandrosta-1,4-diene-17-carboxylate]
- IC50 [1]: < 0.1 nM
- Emax [2]: < 25%

Compound: CCC(OC(=O)O[C@]1(C(=O)OCF)[C@H](C)C[C@H]2[C@@H]3C[C@H](F)C4=CC(=O)C=C[C@]4(C)[C@@]3(F)[C@@H](O)C[C@@]21C)C(C)C (stereo partly drawn) [Example 8, Fluoromethyl(6α,11β,16α,17α)-17-({[(1-ethyl-2-methylpropyl)oxy]carbonyl}oxy)-6,9-difluoro-11-hydroxy-16-methyl-3-oxoandrosta-1,4-diene-17-carboxylate]
- EC50 [3]: > 10 nM
- IC50 [1]: < 0.1 nM
- Emax [2]: < 25%

Compound: CC(C)C(C)OC(=O)O[C@]1(C(=O)OCF)[C@H](C)C[C@H]2[C@@H]3C[C@H](F)C4=CC(=O)C=C[C@]4(C)[C@@]3(F)[C@@H](O)C[C@@]21C (stereo partly drawn) [Example 9, Fluoromethyl(6α,11β,16α,17α)-17-({[(1,2-dimethylpropyl)oxy]carbonyl}oxy)-6,9-difluoro-11-hydroxy-16-methyl-3-oxoandrosta-1,4-diene-17-carboxylate]
- IC50 [1]: < 0.1 nM
- Emax [2]: < 25%

Compound: C[C@@H]1C[C@H]2[C@@H]3C[C@H](F)C4=CC(=O)C=C[C@]4(C)[C@@]3(F)[C@@H](O)C[C@]2(C)[C@@]1(OC(=O)OC1CCCCCC1)C(=O)OCF [Example 14, Fluoromethyl(6α,11β,16α,17α)-17-{[(cycloheptyloxy)carbonyl]oxy}-6,9-difluoro-11-hydroxy-16-methyl-3-oxoandrosta-1,4-diene-17-carboxylate]
- EC50 [3]: > 10 nM
- Emax [2]: < 25%

Compound: C[C@@H]1C[C@H]2[C@@H]3C[C@H](F)C4=CC(=O)C=C[C@]4(C)[C@@]3(F)[C@@H](O)C[C@]2(C)[C@@]1(OC(=O)OCC1CCCC1)C(=O)OCF [Example 15, Fluoromethyl(6α,11β,16α,17α)-17-({[(cyclopentylmethyl)oxy]carbonyl}oxy)-6,9-difluoro-11-hydroxy-16-methyl-3-oxoandrosta-1,4-diene-17-carboxylate]
- IC50 [1]: < 0.1 nM
- Emax [2]: < 25%

Compound: C[C@@H]1C[C@H]2[C@@H]3C[C@H](F)C4=CC(=O)C=C[C@]4(C)[C@@]3(F)[C@@H](O)C[C@]2(C)[C@@]1(OC(=O)O[C@@H]1[C@@H]2CC[C@@H](C2)C1(C)C)C(=O)OCF [Example 30, Fluoromethyl(6α,11β,16α,17α)-17-[({[(1R,2R,4S)-3,3-dimethylbicyclo[2.2.1]hept-2-yl]oxy}carbonyl)oxy]-6,9-difluoro-11-hydroxy-16-methyl-3-oxoandrosta-1,4-diene-17-carboxylate]
- EC50 [3]: > 10 nM
- IC50 [1]: < 0.1 nM
- Emax [2]: < 25%

Compound: CC(C)[C@H]1CC[C@H](C)C[C@@H]1OC(=O)O[C@]1(C(=O)OCF)[C@H](C)C[C@H]2[C@@H]3C[C@H](F)C4=CC(=O)C=C[C@]4(C)[C@@]3(F)[C@@H](O)C[C@@]21C [Example 32, Fluoromethyl(6α,11β,16α,17α)-6,9-difluoro-11-hydroxy-16-methyl-17-[({[(1 S,2R,5S)-5-methyl-2-(1-methylethyl)cyclohexyl]oxy}carbonyl)oxy]-3-oxoandrosta-1,4-diene-17-carboxylate]
- EC50 [3]: > 10 nM
- Emax [2]: < 25%

Compound: C[C@@H]1[C@H]2C[C@@H](C[C@H]1OC(=O)O[C@]1(C(=O)OCF)[C@H](C)C[C@H]3[C@@H]4C[C@H](F)C5=CC(=O)C=C[C@]5(C)[C@@]4(F)[C@@H](O)C[C@@]31C)C2(C)C [Example 34, Fluoromethyl(6α,11β,16α,17α)-6,9-difluoro-11-hydroxy-16-methyl-3-oxo-17-[({[(1R,2R,3R,5S)-2,6,6-trimethylbicyclo[3.1.1]hept-3-yl]oxy}carbonyl)oxy]androsta-1,4-diene-17-carboxylate]
- EC50 [3]: > 10 nM
- Emax [2]: < 25%

Compound: CCC(OC(=O)O[C@]1(C(=O)OCF)[C@H](C)C[C@H]2[C@@H]3C[C@H](F)C4=CC(=O)C=C[C@]4(C)[C@@]3(F)[C@@H](O)C[C@@]21C)C(C)(C)C (stereo partly drawn) [Example 38, Fluoromethyl(6α,11β,16α,17α)-17-({[(1-ethyl-2,2-dimethylpropyl)oxy]carbonyl}oxy)-6,9-difluoro-11-hydroxy-16-methyl-3-oxoandrosta-1,4-diene-17-carboxylate]
- EC50 [3]: > 10 nM
- Emax [2]: < 25%
